The subject of this experiment is 3T3-L1 adipocytes. The experiment can be described thus: Insulin-stimulated 2-deoxyglucose uptake. It counts as cell-based, mouse. Particulars: 3 h, 893 10 μM, MK-2206 2 μM. As to the method:
3T3-L1 cells were maintained in DMEM with 10% FBS and 1% penicillin-streptomycin until induced to differentiate. 3T3-L1 pre-adipocytes were differentiated as described in (M. P. Valley, et al., Anal. Biochem. 505: 43-50, 2016, the disclosure of which is incorporated herein by reference) with slight modifications. Briefly, pre-adipocytes were grown to confluence. After 2 d, cells were induced with maintenance media containing 500 μM IBMX (15879, Sigma-Aldrich, St. Louis, Mo.), 1 μM dexamethasone (D4902, Sigma-Aldrich), 5 μg/mL bovine insulin (10516, Sigma-Aldrich), and 5 μM troglitazone (50-115-0786, ApexBio). Media was changed every 2-3 d for 7 d. On day 7 post-induction, media was changed to maintenance media+5 μg/mL bovine insulin. On day 9 post-induction, media was changed to maintenance media. Mature adipocytes were used 12-14 d post-induction for all experiments. LSL-KrasG12D mouse embryonic fibroblasts (MEFs) with and without Cre-mediated deletion of the STOP cassette were obtained from David Tuveson (Cold Spring Harbor Laboratory, Cold Spring Harbor N.Y., USA) in 2000. p53^flox/flox MEFs were derived in house (2015) from C57BL/6 mice using standard techniques and immortalized by transient expression of Cre recombinase and deletion of p53. MEFs were cultured and maintained in DMEM with 10% FBS and 1% penicillin-streptomycin. […]

With `CCCCCCCCc1ccc([C@H]2CCN[C@@H]2CO)cc1.Cl` [compound 893], the Insulin-stimulated glucose uptake entry is reported as “but not sphingolipid-like compound 893, impeded insulin-stimulated glucose uptake in adipocytes”.

For the origin of these results see patent publication US20220409617A1, “Drug Formulations and Methods of Treatment for Metabolic Disorders” (The Regents of the University of California, priority 2019, published 2022).
